Laboratory results taken from patent publication US20130090333A1, “BENZOXAZINE DERIVATIVES AS CRAC MODULATORS” (Hoffmann-La Roche Inc., priority 2011, published 2013).
Like-named read-outs stand apart in the source and are kept apart here.

Experiments:
[1] = test system: IL-2 production in Jurkat cell (ATCC); assay: Jurkat IL-2 Production Assay; type: cell-based; details: Jurkat cells, 18-20 h incubation, serum/stimulant variant (1% FBS/PHA or 30% FBS/PMA+ionomycin) not given
Description: Jurkat IL-2 Production Assay Cell: Jurkat cell (ATCC) was grown in RPMI 1640 with 10% FBS and 1% penicillin/streptomycin. The cell density was kept at 1.2˜1.8×10^6/mL in culture flask before seeding into culture plate, and the cell density in the plate was 0.5×10^6/2004/well. Culture Media: RPMI 1640 with 1% FBS or 30% FBS for high serum assay. Test Compound: Serial dilution was done in 100% DMSO, and intermediate dilution was done with RPMI 1640 medium with 1% FBS. The DMSO final concentration in culture well was 0.25%. Stimulant: PHA (Sigma#L9017-10MG) was used for the assay with 1% FBS in culture medium, and added after 10 minutes exposure of cell to compound/DMSO. The PHA final concentration in culture well was 5 μg/mL. PMA (Sigma# P-8139 5MG)/Ionomycin (Sigma# I0634-5MG) was used for the assay with 30% FBS in culture medium, and added at same time point as the 1% FBS culture assay. The final concentration of PMA was 50 ng/mL, and Ionomycin final concentration was 500 ng/mL. Incubation: At 37° C. with 5% CO2 and 95% humidity for 18 h˜20 h. IC50: IC50 was calculated with the data analysis software XLfit4, General Pharmacology model 251.

[2] = test system: T cell IL-2 production in human whole blood; assay: Human Whole Blood Assay (inhibition of T cell IL-2 production); type: cell-based; details: 10 μM Thapsigargin overnight, plasma IL-2 by AlphaLISA, read-out: HWB
Description: Inhibition of T cell IL-2 production CRAC compounds were tested in human whole blood from normal donors. 200 μl of human whole blood was aliquoted into each well of a round bottom 96 well plate. Concentration-response curves were generated for test compounds and CsA (as controls) by performing serial dilutions of the compounds and incubating each concentration in a single well for 30 min (experiment was performed in triplicate). Following incubation, the blood was stimulated with 10 μM Thapsigargin (SIGMA) overnight at 37° C. IL-2 concentrations in the plasma were determined by AlphaLISA IL-2 assay (Perkin Elmer). Data analysis was performed using GraphPad PRISMS.

| Compound | IC50 ([1]; Homo sapiens) [nM] | IC50 ([2]; T-cell) [nM] | further results |
| --- | --- | --- | --- |
| Cc1cc(C(F)(F)F)ccc1-c1ccc2c(c1)OCC(c1c(F)cccc1F)N2 (centres unmarked) [Example 1, 3-(2,6-Difluoro-phenyl)-7-(2-methyl-4-trifluoromethyl-phenyl)-3,4-dihydro-2H-benzo[1,4]oxazine] | 120 | – | – |
| Cc1ccc(C(F)(F)F)cc1-c1ccc2c(c1)OCC(c1c(F)cccc1F)N2 (centres unmarked) [Example 4, 3-(2,6-difluoro-phenyl)-7-(2-methyl-5-trifluoromethyl-phenyl)-3,4-dihydro-2H-benzo[1,4]oxazine] | 100 | 3220 | – |
| Cn1nc(C(F)(F)F)cc1-c1ccc2c(c1)OCC(c1c(F)cccc1F)N2 (centres unmarked) [Example 5, 3-(2,6-Difluoro-phenyl)-7-(2-methyl-5-trifluoromethyl-2H-pyrazol-3-yl)-3,4-dihydro-2H-benzo[1,4]oxazine] | 100 | 910 | – |
| CCn1nc(-c2cnccn2)cc1-c1ccc2c(c1)OCC(c1c(F)cccc1F)N2 (centres unmarked) [Example 8, 3-(2,6-Difluoro-phenyl)-7-(2-ethyl-5-pyrazin-2-yl-2H-pyrazol-3-yl)-3,4-dihydro-2H-benzo[1,4]oxazine] | 110 | – | – |
| Cn1nc(-c2cccnc2)nc1-c1ccc2c(c1)OCC(c1c(F)cccc1F)N2 (centres unmarked) [Example 9, 3-(2,6-Difluoro-phenyl)-7-(2-methyl-5-pyridin-3-yl-2H-[1,2,4]triazol-3-yl)-3,4-dihydro-2H-benzo[1,4]oxazine] | 310 | – | – |
| CCn1nc(-c2cccnc2)nc1-c1ccc2c(c1)OCC(c1c(F)cccc1F)N2 (centres unmarked) [Example 10, 3-(2,6-Difluoro-phenyl)-7-(2-ethyl-5-pyridin-3-yl-2H-[1,2,4]triazol-3-yl)-3,4-dihydro-2H-benzo[1,4]oxazine] | 90 | 510 | – |
| Cc1sc(-c2ccccn2)nc1-c1ccc2c(c1)OCC(c1c(F)cccc1F)N2 (centres unmarked) [Example 11, 3-(2,6-Difluoro-phenyl)-7-(5-methyl-2-pyridin-2-yl-thiazol-4-yl)-3,4-dihydro-2H-benzo[1,4]oxazine] | 120 | 1820 | – |
| CCc1sc(-c2ccccn2)nc1-c1ccc2c(c1)OCC(c1c(F)cccc1F)N2 (centres unmarked) [Example 13, 3-(2,6-Difluoro-phenyl)-7-(5-ethyl-2-pyridin-2-yl-thiazol-4-yl)-3,4-dihydro-2H-benzo[1,4]oxazine] | – | 1940 | – |
| Cc1sc(-c2cnccn2)nc1-c1ccc2c(c1)OCC(c1c(F)cccc1F)N2 (centres unmarked) [Example 15, 3-(2,6-difluorophenyl)-7-(5-methyl-2-(pyrazin-2-yl)thiazol-4-yl)-3,4-dihydro-2H-benzo[b][1,4]oxazine] | 60 | – | – |
| CCc1cc(-c2nc(-c3ccc4c(c3)OCC(c3c(F)cccc3F)N4)c(CC)s2)ccn1 (centres unmarked) [Example 18, 3-(2,6-Difluoro-phenyl)-7-[5-ethyl-2-(2-ethyl-pyridin-4-yl)-thiazol-4-yl]-3,4-dihydro-2H-benzo[1,4]oxazine] | – | 6150 | – |
| CCc1sc(-c2ncco2)nc1-c1ccc2c(c1)OCC(c1c(F)cccc1F)N2 (centres unmarked) [Example 19, 3-(2,6-Difluoro-phenyl)-7-(5-ethyl-2-oxazol-2-yl-thiazol-4-yl)-3,4-dihydro-2H-benzo[1,4]oxazine] | – | 650 | – |
| COc1cc(C)c(-c2ccc3c(c2)OCC(c2c(F)cccc2F)N3)cn1 (centres unmarked) [Example 21, 3-(2,6-Difluoro-phenyl)-7-(6-methoxy-4-methyl-pyridin-3-yl)-3,4-dihydro-2H-benzo[1,4]oxazine] | 280 | – | – |
| CCS(=O)(=O)c1cc(C)c(-c2ccc3c(c2)OCC(c2c(F)cccc2F)N3)cn1 (centres unmarked) [Example 22, 3-(2,6-difluorophenyl)-7-(6-(ethylsulfonyl)-4-methylpyridin-3-yl)-3,4-dihydro-2H-benzo[b][1,4]oxazine] | 90 | – | – |
| Cc1cc(Cl)ncc1-c1ccc2c(c1)OCC(c1c(F)cccc1F)N2 (centres unmarked) [Example 23, 7-(6-Chloro-4-methyl-pyridin-3-yl)-3-(2,6-difluoro-phenyl)-3,4-dihydro-2H-benzo[1,4]oxazine] | 320 | – | – |
| Cc1cc(-c2ncco2)ncc1-c1ccc2c(c1)OCC(c1c(F)cccc1F)N2 (centres unmarked) [Example 24, 3-(2,6-Difluoro-phenyl)-7-(4-methyl-6-oxazol-2-yl-pyridin-3-yl)-3,4-dihydro-2H-benzo[1,4]oxazine] | 340 | – | – |
| Cc1cc(-c2cnc(N)nc2)ncc1-c1ccc2c(c1)OCC(c1c(F)cccc1F)N2 (centres unmarked) [Example 25, 5-(5-(3-(2,6-difluorophenyl)-3,4-dihydro-2H-benzo[b][1,4]oxazin-7-yl)-4-methylpyridin-2-yl)pyrimidin-2-amine] | 660 | – | – |
| Cc1ncc(-c2cc(C)c(-c3ccc4c(c3)OCC(c3c(F)cccc3F)N4)cn2)s1 (centres unmarked) [Example 26, 3-(2,6-difluorophenyl)-7-(4-methyl-6-(2-methylthiazol-5-yl)pyridin-3-yl)-3,4-dihydro-2H-benzo[b][1,4]oxazine] | 210 | – | – |
| Cc1cc(-c2nnn(C)n2)ncc1-c1ccc2c(c1)OCC(c1c(F)cccc1F)N2 (centres unmarked) [Example 27, 3-(2,6-difluorophenyl)-7-(4-methyl-6-(2-methyl-2H-tetrazol-5-yl)pyridin-3-yl)-3,4-dihydro-2H-benzo[b][1,4]oxazine] | 670 | – | – |
| Cc1ccc(-c2ncco2)cc1-c1ccc2c(c1)OCC(c1c(F)cccc1F)N2 (centres unmarked) [Example 28, 3-(2,6-Difluoro-phenyl)-7-(2-methyl-5-oxazol-2-yl-phenyl)-3,4-dihydro-2H-benzo[1,4]oxazine] | – | 1000 | – |
| Cc1cc(C(F)(F)F)ccc1-c1ccc2c(c1)OCC(c1c(F)cccc1Cl)N2 (centres unmarked) [Example 29, 3-(2-Chloro-6-fluoro-phenyl)-7-(2-methyl-4-trifluoromethyl-phenyl)-3,4-dihydro-2H-benzo[1,4]oxazine] | 160 | 5330 | – |
| Cc1ccc(C(F)(F)F)cc1-c1ccc2c(c1)OCC(c1c(F)cccc1Cl)N2 (centres unmarked) [Example 30, 3-(2-Chloro-6-fluoro-phenyl)-7-(2-methyl-5-trifluoromethyl-phenyl)-3,4-dihydro-2H-benzo[1,4]oxazine] | 220 | – | – |
| Cc1sc(-c2ccccn2)nc1-c1ccc2c(c1)OCC(c1c(F)cccc1Cl)N2 (centres unmarked) [Example 31, 3-(2-Chloro-6-fluoro-phenyl)-7-(5-methyl-2-pyridin-2-yl-thiazol-4-yl)-3,4-dihydro-2H-benzo[1,4]oxazine] | 140 | 3550 | – |
| Cc1sc(-c2cccnc2)nc1-c1ccc2c(c1)OCC(c1c(F)cccc1Cl)N2 (centres unmarked) [Example 32, 3-(2-Chloro-6-fluoro-phenyl)-7-(5-methyl-2-pyridin-3-yl-thiazol-4-yl)-3,4-dihydro-2H-benzo[1,4]oxazine] | 50 | 580 | – |
| COc1cc(C)c(-c2ccc3c(c2)OCC(c2c(F)cccc2Cl)N3)cn1 (centres unmarked) [Example 33, 3-(2-Chloro-6-fluoro-phenyl)-7-(6-methoxy-4-methyl-pyridin-3-yl)-3,4-dihydro-2H-benzo[1,4]oxazine] | 380 | – | – |
| Cn1nc(C(F)(F)F)cc1-c1ccc2c(c1)OCC(c1ccccc1Cl)N2 (centres unmarked) [Example 34, 3-(2-chlorophenyl)-7-(1-methyl-3-(trifluoromethyl)-1H-pyrazol-5-yl)-3,4-dihydro-2H-benzo[b][1,4]oxazine] | 350 | – | – |
| COc1cc(C)c(-c2ccc3c(c2)OCC(c2ccccc2Cl)N3)cn1 (centres unmarked) [Example 35, 3-(2-chlorophenyl)-7-(6-methoxy-4-methylpyridin-3-yl)-3,4-dihydro-2H-benzo[b][1,4]oxazine] | 730 | – | – |
| Cc1sc(-c2cccnc2)nc1-c1ccc2c(c1)OCC(c1ccccc1Cl)N2 (centres unmarked) [Example 36, 3-(2-chlorophenyl)-7-(5-methyl-2-(pyridin-3-yl)thiazol-4-yl)-3,4-dihydro-2H-benzo[b][1,4]oxazine] | 90 | – | – |
| CCc1sc(-c2cnccn2)nc1-c1ccc2c(c1)OCC(c1ccccc1Cl)N2 (centres unmarked) [Example 37, 3-(2-chlorophenyl)-7-(5-ethyl-2-(pyrazin-2-yl)thiazol-4-yl)-3,4-dihydro-2H-benzo[b][1,4]oxazine] | 70 | – | – |
| (R)-3-(2,6-Difluoro-phenyl)-7-(2-methyl-4-trifluoromethyl-phenyl)-3,4-dihydro-2H-benzo[1,4]oxazine or (S)-3-(2,6-Difluoro-phenyl)-7-(2-methyl-4-trifluoromethyl-phenyl)-3,4-dihydro-2H-benzo[1,4]oxazine [Example 2] | – | – | IC50 [2]: 3160 nM; IC50 [1]: 80 nM |
| (S)-3-(2,6-Difluoro-phenyl)-7-(2-methyl-4-trifluoromethyl-phenyl)-3,4-dihydro-2H-benzo[1,4]oxazine or (R)-3-(2,6-Difluoro-phenyl)-7-(2-methyl-4-trifluoromethyl-phenyl)-3,4-dihydro-2H-benzo[1,4]oxazine [Example 3] | – | – | IC50 [1]: 350 nM |
